Source: PubChem BioAssay AID330 (DTP/NCI, 2004)
Several values for one entry are separate records, joined by “and”; a condition that tells them apart may be missing. Equal values may be shown once. Toxic doses and inconclusive results are not listed. How the source made its calls: active means survival T/C of 150% or more; inactive means T/C below 125% in these data.

Tested on: P388 leukemia ip, CD2F1 mice, survival T/C
Assay: NCI In Vivo Anticancer Drug Screen. Data for tumor model P388 Leukemia (intraperitoneal) in CD2F1 (CDF1) mice
Details: endpoint: median survival time, higher = longer survival
Method in brief: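 Mice carrying the transplanted tumor received test compound or vehicle. Survival was recorded in each group, and the value is the treated-group measurement divided by that of the vehicle-treated control group.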

Measured: T/C

O=C(O)/C=C\C(=O)O
inactive: dose: 1.5 mg/kg/injection, schedule: Q01DX009 (ip), vehicle: saline with Tween-80 95 % of control | dose: 3.0 mg/kg/injection, schedule: Q01DX009 (ip), vehicle: saline with Tween-80 100 % of control | dose: 6.0 mg/kg/injection, schedule: Q01DX009 (ip), vehicle: saline with Tween-80 109 % of control | dose: 25.0 mg/kg/injection, schedule: Q01DX009 (ip), vehicle: saline 95 % of control | dose: 50.0 mg/kg/injection, schedule: Q01DX009 (ip), vehicle: saline 104 % of control | dose: 100.0 mg/kg/injection, schedule: Q01DX009 (ip), vehicle: saline 95 % of control

Cn1c(Cl)c(/C=N\Nc2ccccc2[N+](=O)[O-])c2ccccc21
inactive: dose: 25.0 mg/kg/injection, schedule: Q01DX001 (ip), vehicle: Klucel (hydroxypropylcellulose) (HPC) 90 % of control | dose: 50.0 mg/kg/injection, schedule: Q01DX001 (ip), vehicle: Klucel (hydroxypropylcellulose) (HPC) 87 % of control and 89 % of control | dose: 100.0 mg/kg/injection, schedule: Q01DX001 (ip), vehicle: Klucel (hydroxypropylcellulose) (HPC) 86 % of control and 90 % of control | dose: 200.0 mg/kg/injection, schedule: Q01DX001 (ip), vehicle: Klucel (hydroxypropylcellulose) (HPC) 87 % of control and 88 % of control

CC(C)(C)C(=O)CC(=O)C(F)(F)C(F)(F)C(F)(F)F.[Ag]
inactive: dose: 6.25 mg/kg/injection, schedule: Q01DX009 (ip), vehicle: saline with Tween-80 119 % of control | dose: 12.5 mg/kg/injection, schedule: Q01DX009 (ip), vehicle: saline with Tween-80 119 % of control | dose: 25.0 mg/kg/injection, schedule: Q01DX009 (ip), vehicle: saline with Tween-80 114 % of control

COc1ccc(/C=N/Nc2cc(C)nc3ccc(F)cc23)c2ccccc12
inactive: dose: 12.5 mg/kg/injection, schedule: Q01DX005 (ip), vehicle: Klucel (hydroxypropylcellulose) (HPC) 97 % of control | dose: 25.0 mg/kg/injection, schedule: Q01DX005 (ip), vehicle: Klucel (hydroxypropylcellulose) (HPC) 98 % of control | dose: 50.0 mg/kg/injection, schedule: Q01DX005 (ip), vehicle: Klucel (hydroxypropylcellulose) (HPC) 99 % of control

CCN(CC)CCCC(C)Nc1c2ccc(Cl)cc2nc2ccc(OC)cc12 (stereo unspecified)
inactive: dose: 3.0 mg/kg/injection, schedule: Q03HX024 (ip), vehicle: saline with Tween-80 108 % of control | dose: 4.0 mg/kg/injection, schedule: Q01DX009 (ip), vehicle: suspension in saline 104 % of control | dose: 4.0 mg/kg/injection, schedule: Q#A X018 (ip), vehicle: saline with Tween-80 97 % of control | dose: 6.0 mg/kg/injection, schedule: Q03HX024 (ip), vehicle: saline with Tween-80 93 % of control | dose: 8.0 mg/kg/injection, schedule: Q01DX009 (ip), vehicle: saline with Tween-80 104 % of control and 105 % of control | dose: 8.0 mg/kg/injection, schedule: Q01DX009 (ip), vehicle: suspension in saline 110 % of control | dose: 8.0 mg/kg/injection, schedule: Q#A X018 (ip), vehicle: saline with Tween-80 87 % of control | dose: 16.0 mg/kg/injection, schedule: Q01DX009 (ip), vehicle: saline with Tween-80 106 % of control and 120 % of control | dose: 16.0 mg/kg/injection, schedule: Q01DX009 (ip), vehicle: suspension in saline 108 % of control | dose: 16.0 mg/kg/injection, schedule: Q#A X018 (ip), vehicle: saline with Tween-80 91 % of control | dose: 20.0 mg/kg/injection, schedule: Q04DX003 (ip), vehicle: saline with Tween-80 100 % of control | dose: 24.0 mg/kg/injection, schedule: Q03HX024 (ip), vehicle: saline with Tween-80 108 % of control | dose: 24.0 mg/kg/injection, schedule: Q04DX003 (ip), vehicle: saline with Tween-80 97 % of control | dose: 32.0 mg/kg/injection, schedule: Q01DX009 (ip), vehicle: saline with Tween-80 117 % of control | dose: 32.0 mg/kg/injection, schedule: Q01DX009 (ip), vehicle: suspension in saline 113 % of control | dose: 32.0 mg/kg/injection, schedule: Q#A X018 (ip), vehicle: saline with Tween-80 104 % of control | dose: 40.0 mg/kg/injection, schedule: Q04DX003 (ip), vehicle: saline with Tween-80 100 % of control | dose: 48.0 mg/kg/injection, schedule: Q04DX003 (ip), vehicle: saline with Tween-80 97 % of control | dose: 64.0 mg/kg/injection, schedule: Q01DX009 (ip), vehicle: suspension in saline 113 % of control | dose: 71.0 mg/kg/injection, schedule: Q01DX001 (ip), vehicle: saline with Tween-80 106 % of control | dose: 80.0 mg/kg/injection, schedule: Q04DX003 (ip), vehicle: saline with Tween-80 108 % of control | dose: 96.0 mg/kg/injection, schedule: Q04DX003 (ip), vehicle: saline with Tween-80 106 % of control | dose: 128.0 mg/kg/injection, schedule: Q01DX009 (ip), vehicle: saline with Tween-80 98 % of control | dose: 128.0 mg/kg/injection, schedule: Q01DX009 (ip), vehicle: suspension in saline 91 % of control | dose: 143.0 mg/kg/injection, schedule: Q01DX001 (ip), vehicle: saline with Tween-80 113 % of control
